Results from patent publication US9480677B2, “Enantiomers of spiro-oxindole compounds and their uses as therapeutic agents” (Xenon Pharmaceuticals Inc., priority 2009, dated 2016).

What was measured:
hNav1.7 [1] = molecular target: T1, hNav1.7 (Homo sapiens, UniProt Q15858); test: Electrophysiological assay, whole cell voltage clamp; type: cell-based; parameters: expressed in transfected cells; host or cells: HEK293; conditions: for Ki: affinity for the inactivated state of hNav1.7; for Kd: affinity for the rested/closed state of hNav1.7, holding potential −120 mV, read-out: Kr
T1 sequence (Q15858 whole entry): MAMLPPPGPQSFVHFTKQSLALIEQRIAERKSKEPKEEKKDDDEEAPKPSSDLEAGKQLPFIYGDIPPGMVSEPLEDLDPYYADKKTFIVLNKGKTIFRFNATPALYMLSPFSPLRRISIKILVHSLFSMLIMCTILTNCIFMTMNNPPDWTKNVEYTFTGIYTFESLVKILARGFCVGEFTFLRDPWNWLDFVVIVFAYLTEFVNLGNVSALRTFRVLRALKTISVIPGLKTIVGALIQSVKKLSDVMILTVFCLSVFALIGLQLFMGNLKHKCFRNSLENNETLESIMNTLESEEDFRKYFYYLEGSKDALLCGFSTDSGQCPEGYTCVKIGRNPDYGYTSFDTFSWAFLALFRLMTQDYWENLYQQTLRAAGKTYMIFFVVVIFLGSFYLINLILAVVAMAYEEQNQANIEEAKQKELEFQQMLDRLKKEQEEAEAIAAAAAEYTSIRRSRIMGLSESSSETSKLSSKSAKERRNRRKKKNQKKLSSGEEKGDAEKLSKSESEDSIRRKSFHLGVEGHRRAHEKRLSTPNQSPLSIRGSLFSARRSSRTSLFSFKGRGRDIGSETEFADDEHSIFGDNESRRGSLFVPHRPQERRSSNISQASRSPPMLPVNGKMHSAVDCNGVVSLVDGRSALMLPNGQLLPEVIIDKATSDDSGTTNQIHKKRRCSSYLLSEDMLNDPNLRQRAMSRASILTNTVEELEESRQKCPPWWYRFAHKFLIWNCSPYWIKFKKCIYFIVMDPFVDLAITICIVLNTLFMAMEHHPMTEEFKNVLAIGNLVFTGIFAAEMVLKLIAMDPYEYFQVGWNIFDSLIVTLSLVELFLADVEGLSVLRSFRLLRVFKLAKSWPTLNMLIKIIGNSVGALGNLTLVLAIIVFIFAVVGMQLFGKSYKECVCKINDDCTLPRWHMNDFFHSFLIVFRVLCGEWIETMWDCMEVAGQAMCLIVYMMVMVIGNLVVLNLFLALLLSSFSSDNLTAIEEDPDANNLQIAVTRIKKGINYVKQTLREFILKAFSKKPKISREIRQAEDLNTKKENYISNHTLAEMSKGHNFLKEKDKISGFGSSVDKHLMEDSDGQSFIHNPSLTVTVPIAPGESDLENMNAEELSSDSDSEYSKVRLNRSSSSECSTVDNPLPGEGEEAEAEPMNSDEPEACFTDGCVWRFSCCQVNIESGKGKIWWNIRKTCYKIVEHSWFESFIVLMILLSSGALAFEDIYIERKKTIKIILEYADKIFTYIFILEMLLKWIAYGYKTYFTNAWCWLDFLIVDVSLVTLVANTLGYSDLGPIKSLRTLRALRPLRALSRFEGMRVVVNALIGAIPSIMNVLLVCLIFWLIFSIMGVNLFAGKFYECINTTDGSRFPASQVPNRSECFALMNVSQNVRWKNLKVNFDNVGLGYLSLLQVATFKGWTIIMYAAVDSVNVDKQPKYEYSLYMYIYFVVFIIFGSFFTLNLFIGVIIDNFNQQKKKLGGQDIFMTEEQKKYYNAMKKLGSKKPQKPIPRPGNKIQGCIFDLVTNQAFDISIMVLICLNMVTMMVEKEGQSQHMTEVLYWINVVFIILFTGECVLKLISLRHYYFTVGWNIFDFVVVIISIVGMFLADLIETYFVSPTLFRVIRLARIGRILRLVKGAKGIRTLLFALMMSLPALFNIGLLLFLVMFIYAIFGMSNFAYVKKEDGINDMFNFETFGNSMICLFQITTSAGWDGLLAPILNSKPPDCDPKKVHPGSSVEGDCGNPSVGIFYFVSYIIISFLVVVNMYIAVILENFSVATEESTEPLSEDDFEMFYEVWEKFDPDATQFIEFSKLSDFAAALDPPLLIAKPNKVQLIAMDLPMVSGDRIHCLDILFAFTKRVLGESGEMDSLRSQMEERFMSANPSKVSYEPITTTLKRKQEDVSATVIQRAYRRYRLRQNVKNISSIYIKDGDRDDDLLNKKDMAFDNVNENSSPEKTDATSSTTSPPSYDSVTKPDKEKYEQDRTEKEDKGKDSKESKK
Procedure: HEK293 Cells expressing hNav1.7 were cultured in DMEM growth media (Gibco) with 0.5 mg/mL G418, +/−1% PSG, and 10% heat-inactivated fetal bovine serum at 37° C. and 5% CO2. For electrophysiological recordings, cells were plated on 10 mm dishes.
Whole cell recordings were examined by established methods of whole cell voltage clamp (Bean et al., op. cit.) using an Axopatch 200B amplifier and Clampex software (Axon Instruments, Union City, Calif.). All experiments were performed at ambient temperature. Electrodes were fire-polished to resistances of 2-4 Mohms Voltage errors and capacitance artifacts were minimized by series resistance compensation and capacitance compensation, respectively. Data were acquired at 40 kHz and filtered at 5 kHz. The external (bath) solution consisted of: NaCl (140 mM), KCl (5 mM), CaCl2 (2 mM), MgCl2 (1 mM), HEPES (10 mM) at pH 7.4. The internal (pipette) solution consisted of (in mM): NaCl (5), CaCl2 (0.1), MgCl2 (2), CsCl (10), CsF (120), HEPES (10), EGTA (10), at pH 7.2.
To estimate the steady-state affinity of compounds for the resting and inactivated state of the channel (Kr and Ki, respectively), 12.5 ms test pulses to depolarizing voltages from −60 to +90 m V from a holding potential of −120 m V was used to construct current-voltage relationships (1-V curves). A voltage near the peak of the IV-curve (−30 to 0 m V) was used as the test pulse throughout the remainder of the experiment. Steady-state inactivation (availability) curves were then constructed by measuring the current activated during a 8.75 ms test pulse following 1 second conditioning pulses to potentials ranging from −120 to −10 mV.
The steady-state voltage-dependence of binding of a compound to a voltage-gated sodium channel was determined by measuring the blockage of the ionic current at two holding potentials. Binding to rested-state channels was determined by using a holding potential of −120 mV, so that maximal availability was achieved. Binding to inactivated-state channels was evaluated at a holding potential such that only about 10% of the channels were available to open. The membrane potential was held at this voltage for at least 10 seconds so that drug binding could equilibrate.
The apparent dissociation constant at each voltage was calculated with the equation:
[formula] where Kd is the dissociation constant (either Kr or Ki), and [Drug] is the concentration of the test compound.

hNav1.7 [2] = molecular target: T1, hNav1.7; test: cell-based
[3] = system: chronic constriction injury neuropathic pain; test: Neuropathic pain model; chronic constriction injury (CCI); type: in vivo; conditions: topical ointment containing 2% (w/v)
[4] = Plasma concentration after oral dosing in the CFA model; type: in vivo, rats
Procedure: Each enantiomer was dosed at 10, 30, 100 or 200 mg/Kg. The plasma concentration achieved with each dose was also determined and the reversal of pain response (as the % increase from baseline threshold) is plotted as a function of plasma concentration.

Nav1.4 (CHO-K1) = Nav1.4 (CHO-K1) (Cricetulus griseus, UniProt A0A9J7H6F9); type: cell-based, Chinese Hamster
Nav1.4 (CHO-K1), sequence (A0A9J7H6F9 1-1930): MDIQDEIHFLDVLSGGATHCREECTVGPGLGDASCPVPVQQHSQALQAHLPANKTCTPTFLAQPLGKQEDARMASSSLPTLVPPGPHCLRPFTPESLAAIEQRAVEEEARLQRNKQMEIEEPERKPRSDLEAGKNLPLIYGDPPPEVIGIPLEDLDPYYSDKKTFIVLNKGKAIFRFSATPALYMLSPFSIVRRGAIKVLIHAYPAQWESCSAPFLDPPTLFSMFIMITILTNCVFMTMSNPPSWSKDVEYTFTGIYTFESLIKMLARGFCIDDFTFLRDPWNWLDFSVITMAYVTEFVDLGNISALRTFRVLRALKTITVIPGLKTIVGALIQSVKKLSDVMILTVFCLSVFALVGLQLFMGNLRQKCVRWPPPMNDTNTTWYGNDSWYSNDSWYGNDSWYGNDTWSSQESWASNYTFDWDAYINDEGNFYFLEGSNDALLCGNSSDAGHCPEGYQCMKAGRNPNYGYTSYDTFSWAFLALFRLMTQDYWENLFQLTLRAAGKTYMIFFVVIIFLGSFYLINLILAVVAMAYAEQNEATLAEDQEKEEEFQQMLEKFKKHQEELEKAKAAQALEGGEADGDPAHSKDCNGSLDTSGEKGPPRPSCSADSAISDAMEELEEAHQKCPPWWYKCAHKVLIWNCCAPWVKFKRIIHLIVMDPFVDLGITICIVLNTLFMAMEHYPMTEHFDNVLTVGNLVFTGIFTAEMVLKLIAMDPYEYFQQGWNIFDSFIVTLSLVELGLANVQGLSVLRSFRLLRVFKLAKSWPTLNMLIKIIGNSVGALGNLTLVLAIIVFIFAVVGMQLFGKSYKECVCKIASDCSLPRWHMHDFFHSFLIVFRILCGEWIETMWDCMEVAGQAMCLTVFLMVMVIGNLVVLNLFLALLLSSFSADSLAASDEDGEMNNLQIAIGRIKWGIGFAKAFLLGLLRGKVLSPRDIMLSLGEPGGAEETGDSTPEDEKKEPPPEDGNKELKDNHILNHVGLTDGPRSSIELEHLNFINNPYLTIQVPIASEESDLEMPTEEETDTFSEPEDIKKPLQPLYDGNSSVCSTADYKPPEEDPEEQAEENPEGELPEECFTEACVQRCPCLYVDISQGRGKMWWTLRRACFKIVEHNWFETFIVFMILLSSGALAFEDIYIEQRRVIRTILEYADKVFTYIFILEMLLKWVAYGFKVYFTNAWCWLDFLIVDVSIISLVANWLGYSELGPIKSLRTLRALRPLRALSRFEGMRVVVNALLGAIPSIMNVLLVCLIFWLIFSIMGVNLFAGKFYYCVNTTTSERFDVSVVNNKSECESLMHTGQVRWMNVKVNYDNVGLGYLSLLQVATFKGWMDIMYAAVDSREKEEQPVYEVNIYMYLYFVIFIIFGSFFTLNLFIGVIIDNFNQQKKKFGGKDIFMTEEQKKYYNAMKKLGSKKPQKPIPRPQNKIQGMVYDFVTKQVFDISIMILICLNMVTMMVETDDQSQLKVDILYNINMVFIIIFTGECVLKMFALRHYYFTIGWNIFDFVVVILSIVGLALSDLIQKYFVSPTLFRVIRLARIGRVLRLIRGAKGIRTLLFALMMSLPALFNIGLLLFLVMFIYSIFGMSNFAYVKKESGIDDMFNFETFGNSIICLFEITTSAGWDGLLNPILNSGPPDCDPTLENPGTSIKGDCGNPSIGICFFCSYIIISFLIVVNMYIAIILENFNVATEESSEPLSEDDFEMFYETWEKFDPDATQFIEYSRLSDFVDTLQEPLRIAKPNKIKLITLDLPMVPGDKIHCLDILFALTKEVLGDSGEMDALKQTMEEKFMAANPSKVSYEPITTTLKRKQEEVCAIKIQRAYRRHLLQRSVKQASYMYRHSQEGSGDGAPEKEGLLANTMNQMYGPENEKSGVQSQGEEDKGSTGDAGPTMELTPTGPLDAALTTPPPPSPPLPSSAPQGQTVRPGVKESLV

[5] = system: Nav1.9 and Nav1.7 (SH-SY5Y); type: cell-based, Human
Nav1.4 and 1.5 (L6) = type: cell-based, rat
Nav1.8 (SK-N-BE2C) = type: cell-based, human
Nav1.2 and Nav1.7 (PC12) = type: cell-based, rat

| Structure (SMILES) | Ki (hNav1.7 [1]) | Kd (hNav1.7 [1]) | IC50 (hNav1.7 [2]) | reversal of pain responses, percent increase from baseline [3] | excess of the inactive (R)-enantiomer resulting from use of the racemate ([4]; oral dosing) | plasma concentration at an equivalent dose level ([4]; oral dosing 10, 30, 100 or 200 mg/Kg, compared with the (S)-enantiomer) | block of [14C] guanidine influx by TTX (Nav1.4 (CHO-K1)) | block of [14C] guanidine influx by TTX [5] | block of [14C] guanidine influx by TTX (Nav1.4 and 1.5 (L6)) | block of [14C] guanidine influx by TTX (Nav1.8 (SK-N-BE2C)) | block of [14C] guanidine influx by TTX (Nav1.2 and Nav1.7 (PC12)) |
| --- | --- | --- | --- | --- | --- | --- | --- | --- | --- | --- | --- |
| O=C1N(Cc2ccc(C(F)(F)F)o2)c2ccccc2C12COc1cc3c(cc12)OCO3 (racemic) [(I), 1′-{[5-(trifluoromethyl)furan-2-yl]methyl}spiro[furo[2,3-f][1,3]benzodioxole-7,3′-indol]-2′(1′H)-one] | 142 nM | > 10000 nM | 7 nM | – | – | – | – | – | – | – | – |
| O=C1N(Cc2ccc(C(F)(F)F)o2)c2ccccc2[C@@]12COc1cc3c(cc12)OCO3 [(I-R), (R)-1′-{[5-(trifluoromethyl)furan-2-yl]methyl}spiro[furo[2,3-f][1,3]benzodioxole-7,3′-indol]-2′(1H)-one] | 869 nM | > 10000 nM | 4200 nM | no significant increase from baseline | ~10 fold | much higher plasma concentration | – | – | – | – | – |
| NC1=N[C@H](O)[C@H]2[C@H]3O[C@]4(O)O[C@@H]([C@@H](O)[C@@]2(N1)[C@@H]4O)[C@]3(O)CO [TTX, tetrodotoxin] | – | – | – | – | – | – | completely blocked using TTX. | background was partially blocked | partially blocked by TTX at 100 nM | TTX partially blocked influx | guanidine influx was completely |
